Assay results published in US8940731B2, “Substituted pyridyl amide compounds as modulators of the histamine H3 receptor” (Janssen Pharmaceutica NV, priority 2006, dated 2015).
Counter-ions that a name gives are not always drawn. Like-named read-outs stand apart in the source and are kept apart here.

Assays:
Rat H3 [1] = target: T1, Rat H3 (Rattus norvegicus, UniProt Q9QYN8); experiment: cell-based
Description: (§1) Sublines of SK-N-MC cells were created that expressed a reporter construct and either the human or rat H3 receptor.
Target sequence in this assay (Q9QYN8 whole entry): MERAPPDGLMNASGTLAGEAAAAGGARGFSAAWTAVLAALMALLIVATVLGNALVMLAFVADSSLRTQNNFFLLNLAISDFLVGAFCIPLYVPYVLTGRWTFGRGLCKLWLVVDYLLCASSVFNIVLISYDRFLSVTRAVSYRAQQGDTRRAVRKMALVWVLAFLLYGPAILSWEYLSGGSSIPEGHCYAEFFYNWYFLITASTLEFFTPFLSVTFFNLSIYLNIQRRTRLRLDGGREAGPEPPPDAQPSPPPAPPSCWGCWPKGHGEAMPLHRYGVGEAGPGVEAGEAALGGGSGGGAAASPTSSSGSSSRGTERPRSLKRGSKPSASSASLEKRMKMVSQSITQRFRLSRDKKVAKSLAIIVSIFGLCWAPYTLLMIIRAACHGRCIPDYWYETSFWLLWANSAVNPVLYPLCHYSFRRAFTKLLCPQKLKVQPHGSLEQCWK

[2] = target: T2, cloned human H3 receptors (Homo sapiens, UniProt Q9Y5N1); experiment: H3 Receptor Binding (Human); details: cloned human H3 receptors stably expressed in SK-N-MC cells; average of the results obtained; read-out: Human H3 Ki
T2 construct: expressed in transfected cells
T2 sequence (Q9Y5N1 whole entry): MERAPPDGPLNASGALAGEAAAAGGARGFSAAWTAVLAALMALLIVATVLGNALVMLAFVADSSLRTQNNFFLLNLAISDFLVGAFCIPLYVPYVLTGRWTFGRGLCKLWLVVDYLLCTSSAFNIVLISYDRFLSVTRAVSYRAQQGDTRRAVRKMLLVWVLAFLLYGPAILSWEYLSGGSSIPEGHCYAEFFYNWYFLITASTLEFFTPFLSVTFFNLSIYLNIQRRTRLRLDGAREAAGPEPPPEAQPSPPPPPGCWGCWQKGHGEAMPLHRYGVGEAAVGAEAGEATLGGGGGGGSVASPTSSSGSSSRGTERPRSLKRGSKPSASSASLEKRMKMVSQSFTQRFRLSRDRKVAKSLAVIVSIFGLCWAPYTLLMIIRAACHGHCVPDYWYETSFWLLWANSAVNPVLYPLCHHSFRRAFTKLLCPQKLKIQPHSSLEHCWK
Experimental: H3 Receptor Binding (Human)
Binding of compounds to the cloned human H3 receptors, stably expressed in SK-N-MC cells, was performed as described by Barbier, A. J. et al. (Br. J. Pharmacol. 2004, 143(5), 649-661).

human H3 receptor = target: T3, human H3 receptor (Homo sapiens, UniProt Q9Y5N1); experiment: Cyclic AMP Accumulation (human H3 receptor); type: cell-based
T3 construct: expressed in transfected cells; host or cells: SK-N-MC sublines with a reporter construct
T3 sequence (Q9Y5N1 whole entry): as above
Description: as §1

Rat H3 [3] = target: T1, Rat H3; experiment: H3 Receptor Binding (Rat); details: rat brain membranes without cerebellum, 0.8 nM N-[3H]-α-methylhistamine, 60 min at 25° C.; average of the results obtained
Experimental: H3 Receptor Binding (Rat)
A rat brain without cerebellum (Zivic Laboratories Inc., Pittsburgh, Pa.) was homogenized in 50 mM Tris-HCl/5 mM EDTA and centrifuged at 1,000 rpm for 5 min. The supernatant was removed and recentrifuged at 15,000 rpm for 30 min. Pellets were rehomogenized in 50 mM Tris/5 mM EDTA (pH 7.4). Membranes were incubated with 0.8 nM N-[^3H]-α-methylhistamine plus/minus test compounds for 60 min at 25° C. and harvested by rapid filtration over GF/C glass fiber filters (pretreated with 0.3% polyethylenimine) followed by four washes with buffer. Nonspecific binding was defined in the presence of 100 μM histamine.
Target sequence in this assay (Q9QYN8 1-397 isoform Q9QYN8-3): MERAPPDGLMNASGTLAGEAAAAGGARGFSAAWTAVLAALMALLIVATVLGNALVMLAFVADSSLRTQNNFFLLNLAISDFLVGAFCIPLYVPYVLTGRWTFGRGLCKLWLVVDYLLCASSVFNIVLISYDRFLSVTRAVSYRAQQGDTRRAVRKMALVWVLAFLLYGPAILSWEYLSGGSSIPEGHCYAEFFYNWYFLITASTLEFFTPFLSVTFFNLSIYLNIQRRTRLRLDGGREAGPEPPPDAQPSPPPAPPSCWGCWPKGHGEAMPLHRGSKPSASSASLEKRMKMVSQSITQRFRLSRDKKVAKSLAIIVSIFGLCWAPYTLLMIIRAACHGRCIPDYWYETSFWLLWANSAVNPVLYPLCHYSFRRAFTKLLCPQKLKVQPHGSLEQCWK

[4] = SK-N-MC subline expressing reporter construct and rat H3 receptor, average, read-out: Rat pA2 (converted)
[5] = SK-N-MC subline expressing reporter construct and human H3 receptor, average
[6] = SK-N-MC subline expressing reporter construct and rat H3 receptor, average
[7] = SK-N-MC subline expressing reporter construct and human H3 receptor, average, read-out: Human pA2 (converted)

Structure (SMILES)	Kb (Rat H3 [1])	Ki [2]	Kb (human H3 receptor)	Ki (Rat H3 [3])	Kb (Rat H3 [1]; [4])	Human pA2 (human H3 receptor; [5])	Rat pA2 (Rat H3 [1]; [6])	Kb (human H3 receptor; [7])
CSc1ccc(Oc2ccc(C(=O)N3CCCN(C4CCC4)CC3)cn2)cc1C [Example 40, (4-Cyclobutyl-[1,4]diazepan-1-yl)-[6-(3-methyl-4-methylsulfanyl-phenoxy)-pyridin-3-yl]-methanone]	13.5 nM	1 nM	1.32 nM	36 nM				
O=C(c1ccc(Sc2ccccc2)nc1)N1CCCN(C2CCC2)CC1 [Example 86, (4-Cyclobutyl-[1,4]diazepan-1-yl)-(6-phenylsulfanyl-pyridin-3-yl)-methanone]		1 nM			3.16 nM	9.48		
O=C(c1ccc(Oc2ccc(Cl)cc2)cn1)N1CCCN(C2CCC2)CC1 [Example 68, [5-(4-Chloro-phenoxy)-pyridin-2-yl]-(4-cyclobutyl-[1,4]diazepan-1-yl)-methanone trifluoroacetic acid salt]		2 nM			15.8 nM	8.61		
O=C(c1ccc(Oc2ccc(F)cc2F)nc1)N1CCCN(C2CCC2)CC1 [Example 30, (4-Cyclobutyl-[1,4]diazepan-1-yl)-[6-(2,4-difluoro-phenoxy)-pyridin-3-yl]-methanone]	4.17 nM	1 nM	0.537 nM	26 nM				
O=C(c1ccc(Oc2cccc(F)c2)nc1)N1CCCN(C2CCC2)CC1 [Example 39, (4-Cyclobutyl-[1,4]diazepan-1-yl)-[6-(3-fluoro-phenoxy)-pyridin-3-yl]-methanone]		1 nM		21 nM		9.40	8.38	
O=C(c1ccc(Oc2ccc(F)c(F)c2)nc1)N1CCCN(C2CCC2)CC1 [Example 26, (4-Cyclobutyl-[1,4]diazepan-1-yl)-[6-(3,4-difluoro-phenoxy)-pyridin-3-yl]-methanone]	2.14 nM	1 nM	0.229 nM	16 nM				
O=C(c1ccc(Oc2ccccc2F)nc1)N1CCCN(C2CC2)CC1 [Example 31, (4-Cyclopropyl-[1,4]diazepan-1-yl)-[6-(2-fluoro-phenoxy)-pyridin-3-yl]-methanone]	7.59 nM	4 nM	2.4 nM	39 nM				
N#Cc1nc(C(=O)N2CCCN(C3CC3)CC2)ccc1Oc1cccnc1 [Example 56, 6-(4-Cyclopropyl-[1,4]diazepane-1-carbonyl)-3-(pyridin-3-yloxy)-pyridine-2-carbonitrile hydrochloride salt]	13.8 nM	5 nM	2.34 nM	179 nM				
N#Cc1nc(C(=O)N2CCCN(C3CC3)CC2)ccc1Oc1ccccc1F [Example 61, 6-(4-Cyclopropyl-[1,4]diazepane-1-carbonyl)-3-(2-fluoro-phenoxy)-pyridine-2-carbonitrile]	32.4 nM	6 nM	3.63 nM					
O=C(c1ccc(Sc2ccc(F)cc2)nc1)N1CCCN(C2CCC2)CC1 [Example 83, (4-Cyclobutyl-[1,4]diazepan-1-yl)-[6-(4-fluoro-phenylsulfanyl)-pyridin-3-yl]-methanone]					3.24 nM	9.48		
O=C(c1ccc(Oc2ccc(Cl)c(Cl)c2)nc1)N1CCCN(C2CCC2)CC1 [Example 14, (4-Cyclobutyl-[1,4]diazepan-1-yl)-[6-(3,4-dichloro-phenoxy)-pyridin-3-yl]-methanone]		2 nM		10 nM		9.26	8.16	
O=C(c1ccc(Oc2ccc(Cl)cc2)nc1)N1CCCN(C2CCC2)CC1 [Example 25, [6-(4-Chloro-phenoxy)-pyridin-3-yl]-(4-cyclobutyl-[1,4]diazepan-1-yl)-methanone]		1 nM		25 nM	3.8 nM	9.22		
O=C(c1ccc(Oc2ccc(Cl)c(Cl)c2)nc1)N1CCCN(C2CC2)CC1 [Example 9, (4-Cyclopropyl-[1,4]diazepan-1-yl)-[6-(3,4-dichloro-phenoxy)-pyridin-3-yl]-methanone]	44.7 nM	11 nM	8.71 nM	130 nM				
O=C(c1ccc(Oc2ccccc2Cl)nc1)N1CCCN(C2CCC2)CC1 [Example 73, [6-(2-Chloro-phenoxy)-Pyridin-3-yl]-(4-cyclobutyl-[1,4]diazepan-1-yl)-methanone]		4 nM			1.2 nM			0.309 nM
O=C(c1ccc(Oc2cccc(Cl)c2)cn1)N1CCCN(C2CCC2)CC1 [Example 70, [5-(3-Chloro-phenoxy)-pyridin-2-yl]-(4-cyclobutyl-[1,4]diazepan-1-yl)-methanone trifluoroacetic acid salt]		2 nM			19.1 nM	8.72		
N#Cc1nc(C(=O)N2CCCN(C3CC3)CC2)ccc1Oc1ccc(F)cc1 [Example 59, 6-(4-Cyclopropyl-[1,4]diazepane-1-carbonyl)-3-(4-fluoro-phenoxy)-pyridine-2-carbonitrile]	26.9 nM	3 nM	3.09 nM					
O=C(c1ccc(Oc2ccc(F)cc2)nc1)N1CCCN(C2CCCC2)CC1 [Example 67, (4-Cyclopentyl-[1,4]diazepan-1-yl)-[6-(4-fluoro-phenoxy)-pyridin-3-yl]-methanone]	6.76 nM	2 nM	1.35 nM					
Cc1ccccc1Oc1ccc(C(=O)N2CCCN(C3CCC3)CC2)cn1 [Example 102, (4-Cyclobutyl-[1,4]diazepan-1-yl)-(6-o-tolyloxy-pyridin-3-yl)-methanone]	1.2 nM	1 nM	0.2 nM	17 nM				
O=C(c1ccc(Oc2ccc(Cl)c(Cl)c2)nc1)N1CCCN(C2CCCC2)CC1 [Example 66, (4-Cyclopentyl-[1,4]diazepan-1-yl)-[6-(3,4-dichloro-phenoxy)-pyridin-3-yl]-methanone]	11.5 nM	1 nM	1.12 nM					
Cc1ccc(Oc2ccc(C(=O)N3CCCN(C4CCC4)CC3)cn2)cc1 [Example 104, (4-Cyclobutyl-[1,4]diazepan-1-yl)-(6-p-tolyloxy-pyridin-3-yl)-methanone]	4.27 nM	2 nM	0.724 nM					
O=C(c1ccc(Oc2cccc(Cl)c2)nc1)N1CCCN(C2CCC2)CC1 [Example 24, [6-(3-Chloro-phenoxy)-pyridin-3-yl]-(4-cyclobutyl-[1,4]diazepan-1-yl)-methanone]		1 nM		15 nM	4.37 nM			0.708 nM
O=C(c1ccc(Oc2ccc(Cl)c(Cl)c2)cn1)N1CCCN(C2CCC2)CC1 [Example 51, (4-Cyclobutyl-[1,4]diazepan-1-yl)-[5-(3,4-dichloro-phenoxy)-pyridin-2-yl]-methanone trifluoroacetic acid salt]	21.9 nM	2 nM	2.29 nM	60 nM				
N#Cc1cccc(Oc2ccc(C(=O)N3CCCN(C4CC4)CC3)cn2)c1 [Example 11, 3-[5-(4-Cyclopropyl-[1,4]diazepane-1-carbonyl)-pyridin-2-yloxy]-benzonitrile]		7 nM		447 nM		8.53		
O=C(c1ccc(Oc2ccccc2F)nc1)N1CCCN(C2CCC2)CC1 [Example 29, (4-Cyclobutyl-[1,4]diazepan-1-yl)-[6-(2-fluoro-phenoxy)-pyridin-3-yl]-methanone]	3.55 nM	1 nM	0.813 nM	20 nM				
O=C(c1ccc(Oc2ccccc2)nc1)N1CCCN(C2CCCC2)CC1 [Example 65, (4-Cyclopentyl-[1,4]diazepan-1-yl)-(6-phenoxy-pyridin-3-yl)-methanone]	0.661 nM	2 nM	1.15 nM					
O=C(c1ccc(Oc2ccc(F)cc2)nc1)N1CCN(C2CCCC2)CC1 [Example 74, (4-Cyclopentyl-piperazin-1-yl)-[6-(4-fluoro-phenoxy)-pyridin-3-yl]-methanone]	36.3 nM	7 nM	8.91 nM					
